A short description of series [1]: Subcutaneous HepG2 tumor-bearing mouse models for in vivo imaging. To be noted: tail vein, 0.5 mg/kg. How it is done: Subcutaneous HepG2 Tumor-Bearing Mouse Models (Human-Derived Liver Cancer Cells) for In Vivo Imaging
Test samples: the heptamethine cyanine near-infrared fluorescent dyes provided by Examples 1-4, and the heptamethine cyanine near-infrared fluorescent dyes provided by Comparative Examples 1-3.
Testing method: The subcutaneous HepG2 tumor-bearing mouse models were subjected to tail vein administration of the above samples (0.5 mg/kg, 100 μL of glucose injection), respectively. Indocyanine green (0.5 mg/kg, 100 μL of glucose injection) was taken as a control. After the administration, fluorescence imaging was performed using a surgical fluorescence imaging system (NANJING NUOYUAN MEDICAL DEVICES CO., LTD, 10B), at 0 h (before administration), 6 h, 12 h, 24 h, and 48 h in sequence.

A further series deals with tumor tissues. To be noted: prior art CN111196896A; cited from earlier work.

On to `CC1(C)C(/C=C/C2=C(Cl)C(=C/C=C3/N(CCCS(=O)(=O)O)c4ccccc4C3(C)C)/CCC2)=[N+](CCCS(=O)(=O)O)c2ccc(S(=O)(=O)O)cc21` [Comparative Example 1], for which, in series [1], the “hepatic accumulation and metabolism” value was “hepatic accumulation and non-metabolism”. Moreover, in the series on tumor tissues, the hepatic accumulation result is “deficiency of hepatic accumulation”, the tumor retention result is “exceeding 48 h” and the “tumor targeting capability compared with ICG” value is “stronger”.
